Measured values reported in patent publication US9975918B2 (Van Andel Research Institute, priority 2013, dated 2018).
Substitutions are numbered along the chain they refer to.

Tests used:
[1] = test system: GR Q642 mutations (Q642A, Q642F, Q642E, Q642K); experiment: MMTV-Luc transactivation assay with the other Q642 mutations; assay type: cell-based; conditions: MF 1 nM, DEX 10 nM
GR [2] = target: T1, GR (Homo sapiens, UniProt P04150); experiment: AP1-Luc transrepression reporter assay in AD293 cells; assay type: cell-based
T1 construct: expressed in transfected cells; host or cells: AD293 cells
T1 sequence (P04150 1-777): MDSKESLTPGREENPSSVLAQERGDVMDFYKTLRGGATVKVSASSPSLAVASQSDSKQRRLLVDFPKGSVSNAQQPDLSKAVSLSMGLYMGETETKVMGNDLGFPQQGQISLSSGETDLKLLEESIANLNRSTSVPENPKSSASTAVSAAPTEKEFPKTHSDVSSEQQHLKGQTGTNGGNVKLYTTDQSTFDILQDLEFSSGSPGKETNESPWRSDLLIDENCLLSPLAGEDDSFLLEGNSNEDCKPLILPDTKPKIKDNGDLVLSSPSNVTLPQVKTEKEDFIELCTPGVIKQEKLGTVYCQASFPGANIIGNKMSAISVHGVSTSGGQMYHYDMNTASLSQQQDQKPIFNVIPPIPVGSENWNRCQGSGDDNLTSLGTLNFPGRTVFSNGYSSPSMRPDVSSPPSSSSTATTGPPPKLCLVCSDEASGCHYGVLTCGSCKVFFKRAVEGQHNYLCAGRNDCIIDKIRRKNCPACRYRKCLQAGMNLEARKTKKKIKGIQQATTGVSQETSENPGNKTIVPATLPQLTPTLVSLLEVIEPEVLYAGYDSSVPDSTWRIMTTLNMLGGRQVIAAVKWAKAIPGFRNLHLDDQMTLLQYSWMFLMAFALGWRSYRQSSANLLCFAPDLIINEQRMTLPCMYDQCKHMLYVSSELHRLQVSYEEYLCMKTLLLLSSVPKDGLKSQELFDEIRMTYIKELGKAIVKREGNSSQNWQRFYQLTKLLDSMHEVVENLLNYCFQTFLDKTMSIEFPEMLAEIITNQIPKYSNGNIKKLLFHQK

GR [3] = target: T1, GR; experiment: MMTV-Luc transactivation (induction) reporter assay in AD293 cells; assay type: cell-based; conditions: for potency compared with reference glucocorticoids, in words: MMTV-Luc, AD293 cells; for potency for GR, in words: compounds without 17α furoate; for effect of the 17α furoate on potency and efficacy, in words: relative to the corresponding compound without 17α furoate
GR Q642N = target: T2, GR Q642N (Homo sapiens, UniProt P04150, Q642N); experiment: MMTV-Luc transactivation assay with Q642N mutant; assay type: cell-based; conditions: compared with wild type; up to saturation concentration
T2 construct: expressed in transfected cells; host or cells: AD293 cells
T2 sequence (P04150 1-777 Q642N): T1 sequence (P04150 1-777) with Q642N
Procedure: AD293 cells were split at 20,000/well in 24 well plate one day before transfection. For transactivation, 100 ng pHHLuc (MMTV-Luc) plasmid, 0.1 ng pRShGR together with 5 ng phRGtkRenilla were transfected by X-tremeGENE 9 (Roche) into AD293 cells per well. For transreperssion, 10 ng AP1-Luc, 100 ng pRShGR and 5 ng phRGtkRenilla were transfected into AD293 cells per well. One day after transfection, cells were induced by different treatment (steroids or vehicle) 16 hrs overnight.

[4] = when used at high concentration; cited from earlier work

C[C@@H]1C[C@H]2[C@@H]3CCC4=CC(=O)C=C[C@]4(C)[C@@]3(Cl)[C@@H](O)C[C@]2(C)[C@@]1(OC(=O)c1ccco1)C(=O)CCl [MF, Mometasone Furoate]
transactivation activity at sub-saturated concentration, in words [1]: loss of most of the activity

C[C@]12CCC(=O)C=C1CC[C@@H]1[C@@H]2[C@@H](O)C[C@@]2(C)[C@H]1CC[C@]2(O)C(=O)CO [cortisol, Cortisol]
potency compared with DEX, transrepression, in words (GR [2]): much weaker than DEX | efficacy as % of the efficacy of DEX, transactivation (GR [3]; at its saturation concentration (10 μM)): 80% | full dose-response curve of Q642N, in words (GR Q642N): inactive

CON(C)C(=O)[C@@]1(O)CCC2C3CCC4=Cc5c(cnn5-c5ccccc5)C[C@]4(C)C3[C@@H](O)C[C@@]21C (some centres unmarked) [VSG24]
activity in the MMTV reporter assay, in words (GR [3]): almost no activity

CON(C)C(=O)[C@@]1(OC(=O)c2ccco2)CCC2C3CCC4=Cc5c(cnn5-c5ccccc5)C[C@]4(C)C3[C@@H](O)C[C@@]21C (some centres unmarked) [VSG24F]
potency compared with reference glucocorticoids, in words (GR [3]): better than those of DEX and DAC

C[C@]12C=CC(=O)C=C1CC[C@@H]1[C@@H]2[C@@H](O)C[C@@]2(C)[C@H]1CC[C@]2(O)C(=O)CO [prednisolone, reference compound]
leftward shift of the cortisol dose-response curve (GR [3]; transactivation, relative to cortisol): about 5 fold

CCC(=O)O[C@]1(C(=O)NCc2ccccc2)CCC2C3CCC4=Cc5c(cnn5-c5cccc(C(=O)NCc6ccccc6)c5)C[C@]4(C)C3[C@@H](O)C[C@@]21C (some centres unmarked) [VSG15]
potency for GR, in words (GR [3]): relatively low potency

CON(C)C(=O)[C@@]1(OC(=O)c2ccco2)CCC2C3CCC4=Cc5c(cnn5-c5ccccc5)C[C@]4(C)C3[C@@H](O)C[C@@]21C (some centres unmarked) [VSG22]
potency compared with reference glucocorticoids, in words (GR [3]): slightly weaker than MF | EC50 change on replacement of the 17α hydroxyl group by a furoate ester (GR [3]; VSG22 vs VSG24): greater than 1000 fold | effect of the 17α furoate on potency and efficacy, in words (GR [3]): greatly increased both potency and efficacy

CCCNC(=O)[C@@]1(O)CCC2C3CCC4=Cc5c(cnn5-c5cccc(C(=O)NCc6ccccc6)c5)C[C@]4(C)C3[C@@H](O)C[C@@]21C (some centres unmarked) [VSG03]
potency for GR, in words (GR [3]): relatively low potency

CCNC(=O)[C@@]1(OC(=O)c2ccco2)CCC2C3CCC4=Cc5c(cnn5-c5cccc(C(=O)NCc6ccccc6)c5)C[C@]4(C)C3[C@@H](O)C[C@@]21C (some centres unmarked) [VSG10]
effect of the 17α furoate on potency and efficacy, in words (GR [3]): greatly increased both GR potency and efficacy

CCNC(=O)[C@@]1(O)CCC2C3CCC4=Cc5c(cnn5-c5cccc(C(=O)NCc6ccccc6)c5)C[C@]4(C)C3[C@@H](O)C[C@@]21C (some centres unmarked) [VSG02]
potency for GR, in words (GR [3]): relatively low potency

CC1=C[C@@H]2[C@H]([C@@H](O)C[C@@]3(C)[C@H]2C[C@@H](C)[C@]3(O)C(=O)CO)[C@@]2(C)Cc3cnn(-c4ccccc4)c3C=C12 [DAC, deacylcortivazol]
cytotoxicity, in words [4]: strong cytotoxicity

C[C@]12Cc3cnn(-c4cccc(C(=O)NCc5ccccc5)c4)c3C=C1CCC1C2[C@@H](O)C[C@@]2(C)C1CC[C@]2(OC(=O)c1ccco1)C(=O)NCc1ccccc1 (some centres unmarked) [VSG14]
effect of the 17α furoate on potency and efficacy, in words (GR [3]): greatly increased both GR potency and efficacy

CCCNC(=O)[C@@]1(OC(=O)c2ccco2)CCC2C3CCC4=Cc5c(cnn5-c5cccc(C(=O)NCc6ccccc6)c5)C[C@]4(C)C3[C@@H](O)C[C@@]21C (some centres unmarked) [VSG11]
effect of the 17α furoate on potency and efficacy, in words (GR [3]): greatly increased both GR potency and efficacy
